What was measured:
[1] = relative permittivity at zero frequency (dimensionless); xn = mol fraction of the nth substance listed; details: 101 kPa, Liquid, Dekameter
[2] = xn = mol fraction of the nth substance listed; details: 101 kPa, Liquid
[3] = refractive index (Na D-line) (dimensionless); xn = mol fraction of the nth substance listed; details: 101 kPa, Liquid

O=C1CCCO1 [γ-butyrolactone] + CCCCO
Details | mass density [kg/m3] | refractive index | relative permittivity at zero frequency
[1], 293.15 K, x1 = 0.1098 | – | – | 20.68
[1], 293.15 K, x1 = 0.2154 | – | – | 22.37
[1], 293.15 K, x1 = 0.3009 | – | – | 23.98
[1], 293.15 K, x1 = 0.4127 | – | – | 26.17
[1], 293.15 K, x1 = 0.5088 | – | – | 28.44
[1], 293.15 K, x1 = 0.6124 | – | – | 31.29
[1], 293.15 K, x1 = 0.7001 | – | – | 33.79
[1], 293.15 K, x1 = 0.8133 | – | – | 37.12
[1], 293.15 K, x1 = 0.9078 | – | – | 40.02
[1], 298.15 K, x1 = 0.1098 | – | – | 19.61
[1], 298.15 K, x1 = 0.2154 | – | – | 21.23
[1], 298.15 K, x1 = 0.3009 | – | – | 22.55
[1], 298.15 K, x1 = 0.4127 | – | – | 24.92
[1], 298.15 K, x1 = 0.5088 | – | – | 27.23
[1], 298.15 K, x1 = 0.6124 | – | – | 29.79
[1], 298.15 K, x1 = 0.7001 | – | – | 32.21
[1], 298.15 K, x1 = 0.8133 | – | – | 36.01
[1], 298.15 K, x1 = 0.9078 | – | – | 39.13
[1], 303.15 K, x1 = 0.1098 | – | – | 18.57
[1], 303.15 K, x1 = 0.2154 | – | – | 19.99
[1], 303.15 K, x1 = 0.3009 | – | – | 21.61
[1], 303.15 K, x1 = 0.4127 | – | – | 23.88
[1], 303.15 K, x1 = 0.5088 | – | – | 26.16
[1], 303.15 K, x1 = 0.6124 | – | – | 28.82
[1], 303.15 K, x1 = 0.7001 | – | – | 31.34
[1], 303.15 K, x1 = 0.8133 | – | – | 35.03
[1], 303.15 K, x1 = 0.9078 | – | – | 38.46
[1], 313.15 K, x1 = 0.1098 | – | – | 16.65
[1], 313.15 K, x1 = 0.2154 | – | – | 18.16
[1], 313.15 K, x1 = 0.3009 | – | – | 19.99
[1], 313.15 K, x1 = 0.4127 | – | – | 22.01
[1], 313.15 K, x1 = 0.5088 | – | – | 24.43
[1], 313.15 K, x1 = 0.6124 | – | – | 26.76
[1], 313.15 K, x1 = 0.7001 | – | – | 29.25
[1], 313.15 K, x1 = 0.8133 | – | – | 33.05
[1], 313.15 K, x1 = 0.9078 | – | – | 36.56
[2], 293.15 K, x1 = 0.0786 | 831.12 | – | –
[2], 293.15 K, x1 = 0.1555 | 852.82 | – | –
[2], 293.15 K, x1 = 0.2466 | 879.28 | – | –
[2], 293.15 K, x1 = 0.2901 | 892.18 | – | –
[2], 293.15 K, x1 = 0.3664 | 915.23 | – | –
[2], 293.15 K, x1 = 0.4332 | 935.89 | – | –
[2], 293.15 K, x1 = 0.4988 | 956.54 | – | –
[2], 293.15 K, x1 = 0.5616 | 976.71 | – | –
[2], 293.15 K, x1 = 0.6336 | 1000.34 | – | –
[2], 293.15 K, x1 = 0.7033 | 1023.73 | – | –
[2], 293.15 K, x1 = 0.7956 | 1055.39 | – | –
[2], 293.15 K, x1 = 0.8654 | 1080.09 | – | –
[2], 293.15 K, x1 = 0.9334 | 1104.36 | – | –
[2], 293.15 K, x1 = 0.9888 | 1124.69 | – | –
[2], 298.15 K, x1 = 0.0786 | 827.22 | – | –
[2], 298.15 K, x1 = 0.1555 | 848.94 | – | –
[2], 298.15 K, x1 = 0.2466 | 875.32 | – | –
[2], 298.15 K, x1 = 0.2901 | 888.19 | – | –
[2], 298.15 K, x1 = 0.3664 | 911.2 | – | –
[2], 298.15 K, x1 = 0.4332 | 931.77 | – | –
[2], 298.15 K, x1 = 0.4988 | 952.35 | – | –
[2], 298.15 K, x1 = 0.5616 | 972.46 | – | –
[2], 298.15 K, x1 = 0.6336 | 996.03 | – | –
[2], 298.15 K, x1 = 0.7033 | 1019.35 | – | –
[2], 298.15 K, x1 = 0.7956 | 1050.92 | – | –
[2], 298.15 K, x1 = 0.8654 | 1075.34 | – | –
[2], 298.15 K, x1 = 0.9334 | 1099.62 | – | –
[2], 298.15 K, x1 = 0.9888 | 1119.77 | – | –
[2], 303.15 K, x1 = 0.0786 | 823.57 | – | –
[2], 303.15 K, x1 = 0.1555 | 845.28 | – | –
[2], 303.15 K, x1 = 0.2466 | 871.63 | – | –
[2], 303.15 K, x1 = 0.2901 | 884.43 | – | –
[2], 303.15 K, x1 = 0.3664 | 907.36 | – | –
[2], 303.15 K, x1 = 0.4332 | 927.87 | – | –
[2], 303.15 K, x1 = 0.4988 | 948.38 | – | –
[2], 303.15 K, x1 = 0.5616 | 968.43 | – | –
[2], 303.15 K, x1 = 0.6336 | 991.92 | – | –
[2], 303.15 K, x1 = 0.7033 | 1015.09 | – | –
[2], 303.15 K, x1 = 0.7956 | 1046.55 | – | –
[2], 303.15 K, x1 = 0.8654 | 1070.81 | – | –
[2], 303.15 K, x1 = 0.9334 | 1094.88 | – | –
[2], 303.15 K, x1 = 0.9888 | 1114.92 | – | –
[2], 313.15 K, x1 = 0.0786 | 816.82 | – | –
[2], 313.15 K, x1 = 0.1555 | 839.3 | – | –
[2], 313.15 K, x1 = 0.2466 | 866.62 | – | –
[2], 313.15 K, x1 = 0.2901 | 879.94 | – | –
[2], 313.15 K, x1 = 0.3664 | 903.64 | – | –
[2], 313.15 K, x1 = 0.4332 | 924.87 | – | –
[2], 313.15 K, x1 = 0.4988 | 946.17 | – | –
[2], 313.15 K, x1 = 0.5616 | 966.89 | – | –
[2], 313.15 K, x1 = 0.6336 | 991.1 | – | –
[2], 313.15 K, x1 = 0.7033 | 1015.08 | – | –
[2], 313.15 K, x1 = 0.7956 | 1047.44 | – | –
[2], 313.15 K, x1 = 0.8654 | 1072.54 | – | –
[2], 313.15 K, x1 = 0.9334 | 1097.32 | – | –
[2], 313.15 K, x1 = 0.9888 | 1118.1 | – | –
[3], 293.15 K, x1 = 0.1098 | – | 1.4026 | –
[3], 293.15 K, x1 = 0.2154 | – | 1.4063 | –
[3], 293.15 K, x1 = 0.3009 | – | 1.4096 | –
[3], 293.15 K, x1 = 0.4127 | – | 1.4136 | –
[3], 293.15 K, x1 = 0.5088 | – | 1.4172 | –
[3], 293.15 K, x1 = 0.6124 | – | 1.4213 | –
[3], 293.15 K, x1 = 0.7001 | – | 1.4247 | –
[3], 293.15 K, x1 = 0.8133 | – | 1.4294 | –
[3], 293.15 K, x1 = 0.9078 | – | 1.4332 | –
[3], 298.15 K, x1 = 0.1098 | – | 1.4014 | –
[3], 298.15 K, x1 = 0.2154 | – | 1.4051 | –
[3], 298.15 K, x1 = 0.3009 | – | 1.4083 | –
[3], 298.15 K, x1 = 0.4127 | – | 1.4124 | –
[3], 298.15 K, x1 = 0.5088 | – | 1.416 | –
[3], 298.15 K, x1 = 0.6124 | – | 1.42 | –
[3], 298.15 K, x1 = 0.7001 | – | 1.4234 | –
[3], 298.15 K, x1 = 0.8133 | – | 1.4279 | –
[3], 298.15 K, x1 = 0.9078 | – | 1.4316 | –
[3], 303.15 K, x1 = 0.1098 | – | 1.4 | –
[3], 303.15 K, x1 = 0.2154 | – | 1.4038 | –
[3], 303.15 K, x1 = 0.3009 | – | 1.407 | –
[3], 303.15 K, x1 = 0.4127 | – | 1.4111 | –
[3], 303.15 K, x1 = 0.5088 | – | 1.4147 | –
[3], 303.15 K, x1 = 0.6124 | – | 1.4186 | –
[3], 303.15 K, x1 = 0.7001 | – | 1.4219 | –
[3], 303.15 K, x1 = 0.8133 | – | 1.4263 | –
[3], 303.15 K, x1 = 0.9078 | – | 1.43 | –
[3], 313.15 K, x1 = 0.1098 | – | 1.3973 | –
[3], 313.15 K, x1 = 0.2154 | – | 1.4013 | –
[3], 313.15 K, x1 = 0.3009 | – | 1.4044 | –
[3], 313.15 K, x1 = 0.4127 | – | 1.4085 | –
[3], 313.15 K, x1 = 0.5088 | – | 1.4121 | –
[3], 313.15 K, x1 = 0.6124 | – | 1.4158 | –
[3], 313.15 K, x1 = 0.7001 | – | 1.4192 | –
[3], 313.15 K, x1 = 0.8133 | – | 1.4232 | –
[3], 313.15 K, x1 = 0.9078 | – | 1.4267 | –
